Laboratory results as given in patent publication US12564596B2, “Agents and methods for modulating pathogen activity” (Griffith University, priority 2018, dated 2026).

How the values were obtained:
[1] = tested on: N. gonorrhoeae strain MS11gfp adherence to CHO-CR3 cells; experiment: Fluorometric adherence assay, gonococci to CHO cells; type: cell-based, Neisseria gonorrhoeae; conditions: 1 h post-challenge
Experimental: The ability of carbamazepine to block adherence of N. gonorrhoeae strain MS11gfp to CHO-neo or CHO-CR3 cells was evaluated using a fluorometric adherence assay. Assays were performed essentially as described by Jen et al (2013, PLoS Pathog. 9(5):e1003377). In this regard, CHO-neo or CHO-CR3 cells were seeded to a 96-well plate and allowed to grow to confluence. MS11gfp gonococci were then used to challenge (1 h) CHO cells simultaneously with, or without, various concentrations of carbamazepine (as noted). Fluorescence (485/528 nm) intensity, corresponding to bacterial adherence, was recorded using a Synergy HT Multi-mode Microplate Reader (BioTek Instruments, Winooski, VT USA). The assay was performed in triplicate on 3 separate occasions. A Kruskal-Wallis k-sample analysis of variance was used to determine the statistical significance of the calculated mean of bacterial adherence.
The ability of the compounds, or negative controls to block adherence of N. gonorrhoeae strain MS11gfp to PEX cells, CHO-CR3, or CHO-neo cells was evaluated using a fluorometric microtiter plate assay. Assays were performed essentially as described by Jen et al. (2013, Plos Pathog 9(5): e1003377). In this regard, GFP-expressing gonococci were used to challenge (1 h) PEX or CHO cells immediately following compound addition. Fluorescence (485/528 nm) intensity, corresponding to bacterial adherence, was recorded using a Synergy HT Multi-mode Microplate Reader (BioTek Instruments, Winooski, VT USA). Blank wells, devoid of PEX or CHO cells, also were inoculated with bacteria and served as a control for non-specific binding. The assay was performed in triplicate on 3 separate occasions. A Student's t-test was used to determine the statistical significance of the calculated mean of bacterial adherence.

[2] = target: T1, N. gonorrhoeae MS11 pilin interaction with human rI-domain (Homo sapiens, UniProt P11215); experiment: SPR 1:1 competition assay, MS11 pilin binding to rI-domain
T1 construct: was performed with human rI-domain immobilized on a CM5 sensor chip surface; made in house
T1 sequence (P11215 150-328): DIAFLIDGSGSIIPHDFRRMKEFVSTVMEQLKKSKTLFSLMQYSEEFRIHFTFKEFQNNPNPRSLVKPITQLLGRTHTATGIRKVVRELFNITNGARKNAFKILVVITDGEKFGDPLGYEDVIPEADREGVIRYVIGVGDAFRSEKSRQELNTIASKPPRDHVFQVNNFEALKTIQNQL
Experimental: To determine if drugs with high affinity interactions with the human rI-domain could inhibit the interaction with MS11 pilin or HIV, competition assay between primary T-cell derived WITO HIV and N. gonorrhoeae MS11 pilin and the drugs were performed as described Mubaiwa et al (2017, Sci Rep. 7(1):5693). Competition analysis SPR of N. gonorrhoeae MS11 pilin and human rI-domain interaction was performed with human rI-domain immobilized on a CM5 sensor chip surface (low immobilization—˜3500 RU compared to ˜14000 RU for initial screening and KD calculations). N. gonorrhoeae MS11 purified pilin, drug or drug and pilin were flowed at 100 nM over the I-domain and the response units of the interactions were recorded.

NC(=O)N1c2ccccc2C=Cc2ccccc21 [carbamazepine, 5H-dibenzo[b,f]azepine-5-carboxamide]
gonococcal adherence to CHO-CR3 cells compared with CHO-neo cells ([1]; 1 μM): not significantly different than that recorded for CHO-neo cells
gonococcal adherence to CHO-CR3, but not CHO-neo, cells with increasing concentrations [1]: dose-dependent decrease
inhibition at 0.1 µM ([2]; 1:1 competition, 100 nM): ~99%
% inhibition ([2]; 1:1 competition, 100 nM, 0.1 µM): 98.97%
Block MS11 pilin in SPR ([2]; direct competition SPR): Yes
Drug RU ([2]; drug alone flowed at 100 nM over immobilized rI-domain): 4.358 RU
Pilin + Drug RU ([2]; drug and pilin flowed at 100 nM, 1:1): 4.675 RU
